Values of other authors, collected in patent publication US12648912B2 (Mylan Laboratories Limited, priority 2020, dated 2026).

What was measured:
[1] = not given; remark: listed apart in the source

In the case of `Cc1cnc(NC(=O)C2=C(O)c3ccccc3S(=O)(=O)N2C)s1` [Meloxicam, 4-hydroxy-2-methyl-N-(5-methyl-2-thiazolyl)-2H-1,2-benzothiazine-3-carboxamide-1,1-dioxide], the “Tmax in fasted state relative to after breakfast” value (15 mg tablets, fasted state) is given as “doubled”, the “Tmax (time to reach maximum concentration)” value (orally delivered, humans) is given as 4 to 6 h and the “second meloxicam concentration peak, time post-dose” value (post-dose, suggested gastrointestinal recirculation) is given as 12 to 14 h. For the same compound, the solubility in methanol ([1]; methanol) was “very slightly soluble” and the solubility in water ([1]; water) was “practically insoluble”.
